Values of other authors in PubChem BioAssay AID1259410 (Chemical Carcinogenesis Research Information System (CCRIS), 2018).

System: rodent tumor promotion studies, tumor incidence
Test: CCRIS tumor promotion studies
Settings: Route [Promoter]: DERMAL, Species: MOUSE

For `CCCCCCCCCCCCCC(=O)O[C@@H]1[C@@H](C)[C@@]2(O)[C@@H](C=C(CO)C[C@]3(O)C(=O)C(C)=C[C@@H]23)[C@@H]2C(C)(C)[C@]12OC(C)=O`, the outcome (Carcinogen: BENZO[B]FLUORANTHENE, 205-99-2, Doses [Carcinogen]: 0, 0.04, 0.12, 0.4 UMOL (TOTAL DOSE) APPLIED IN SUBDOSES 1/2 D FOR 5 WK, Doses [Carcinogen]: 0, 0.04, 0.12, 0.4 UMOL (TOTAL DOSE) APPLIED IN SUBDOSES 1/2 D FOR 5 WK, Doses [Promoter]: 2.5 UG IN 100 µL ACETONE 3/WK FOR 20 WK BEGINNING 10 D POST LAST CARCINOGEN DOSE (STUDY DURATION: 26 WK), Route [Carcinogen]: DERMAL, Strain/Sex: CD-1/FEMALE) is listed as “skin: tumor”, the outcome (Carcinogen: BENZO[B]FLUORANTHENE, 205-99-2, Doses [Carcinogen]: 40, 120, 400 NMOL (TOTAL DOSE) APPLIED 1/2 D FOR 10 SUBDOSES, Doses [Carcinogen]: 40, 120, 400 NMOL (TOTAL DOSE) APPLIED 1/2 D FOR 10 SUBDOSES, Doses [Promoter]: 0, 2.5 UG IN 100 µL ACETONE 3/WK FOR 20 WK BEGINNING 10 D POST CARCINOGEN TREATMENT (STUDY DURATION: 22 WK), Route [Carcinogen]: DERMAL, Strain/Sex: CRL:CD-1/FEMALE) is listed as “skin: tumor” and the outcome (Carcinogen: BENZO[B]FLUORANTHRENE, 205-99-2, Doses [Carcinogen]: 40, 100 NMOL TOTAL DOSES GIVEN IN 10 SUBDOSES 1/2 D IN 0.1 ML ACETONE, Doses [Promoter]: 2.5 UG IN 0.1 ML ACETONE 3/WK FOR 30 WK BEGINNING 10 D POST CARCINOGEN TREATMENT (STUDY DURATION: 34 WK), Route [Carcinogen]: DERMAL, Strain/Sex: CD-1/FEMALE) is listed as “skin: tumors”. For the same compound, the outcome (Carcinogen: BENZO[J]FLUORANTHENE, 205-82-3, Doses [Carcinogen]: 0, 1, 3 UMOL (TOTAL DOSE) IN ACETONE SOLUTION 1/2 D FOR 10 DOSES, Doses [Carcinogen]: 0, 1, 3 UMOL (TOTAL DOSE) IN ACETONE SOLUTION 1/2 D FOR 10 DOSES, Doses [Promoter]: 2.5 UG IN ACETONE 3/WK BEGINNING 10 D POST LAST CARCINOGEN DOSE AND CONTINUING FOR 20 WK (STUDY DURATION: 23 WK), Route [Carcinogen]: DERMAL, Strain/Sex: CD-1/FEMALE) was “skin: tumors”, the outcome (Carcinogen: BENZO[J]FLUORANTHENE, 205-82-3, Doses [Carcinogen]: 0.3, 1, 2 UMOL (TOTAL DOSE) ADMINISTERED IN SUBDOSES 1/2 D, Doses [Carcinogen]: 0.3, 1, 2 UMOL (TOTAL DOSE) ADMINISTERED IN SUBDOSES 1/2 D, Doses [Promoter]: 2.5 UG IN 100 µL ACETONE 3/WK FOR 20 WK BEGINNING 10 D POST LAST CARCINOGEN DOSE (STUDY DURATION: 27 WK), Route [Carcinogen]: DERMAL, Strain/Sex: CD-1/FEMALE) was “skin: tumor” and the outcome (Carcinogen: BENZO[K]FLUORANTHENE, 207-08-9, Doses [Carcinogen]: 4 UMOL (TOTAL DOSE) ADMINISTERED IN 10 SUBDOSES 1/2 D, Doses [Promoter]: 2.5 UG IN 0.1 ML ACETONE 3/WK FOR 30 WK BEGINNING 10 D POST CARCINOGEN TREATMENT (STUDY DURATION: 33 WK), Route [Carcinogen]: DERMAL, Strain/Sex: CRL:CD-1/FEMALE) was “skin: tumor”. For the same compound, the outcome (Carcinogen: CAPTAN, 133-06-2, Doses [Carcinogen]: 450 MG/KG BW IN 200 µL DMSO 3/WK FOR 3 WK, Doses [Promoter]: 0, 5 UG IN 100 µL ACETONE 3/WK FOR 51 WK BEGINNING 1 WK POST CARCINOGEN TREATMENT (STUDY DURATION: 54 WK), Route [Carcinogen]: DERMAL, Strain/Sex: SWISS/FEMALE) was “skin: tumor”, the outcome (Carcinogen: CARBARYL, 63-25-2, Doses [Carcinogen]: 100 MG/KG IN 100 µL ACETONE 3/WK FOR 3 WK, Doses [Promoter]: 0, 5 UG IN 100 µL ACETONE 3/WK FOR 51 WK BEGINNING 1 WK POST CARCINOGEN TREATMENT (STUDY DURATION: 52 WK), Route [Carcinogen]: DERMAL, Strain/Sex: SWISS/FEMALE) was “skin: tumor” and the outcome (Carcinogen: CISPLATIN, 15663-27-1, Doses [Carcinogen]: 7.5 MG/KG IN 2.5% SALINE ONCE ON DAY 17 OF GESTATION, Doses [Promoter]: 0, 2 UG IN ACETONE 2/WK FOR 20 WK TO OFFSPRING OF MOTHERS ADMINISTERED CARCINOGEN (STUDY DURATION: 25 WK), Route [Carcinogen]: INTRAPERITONEAL, TRANSPLACENTAL, Strain/Sex: SENCAR/MALE, FEMALE) was “skin: papilloma”. The outcome (Carcinogen: DIBENZO[A,L]PYRENE-8,9-DIHYDRODIOL, 130063-43-3, Doses [Carcinogen]: 100 NMOL IN 100 µL ACETONE ONCE, Doses [Promoter]: 3.24 NMOL/100 µL ACETONE 2/WK BEGINNING 2 WK POST CARCINOGEN DOSE AND CONTINUING FOR 24 WK (STUDY DURATION: 27 WK), Route [Carcinogen]: DERMAL, Strain/Sex: SENCAR/FEMALE) was “skin: tumor”, the outcome (Carcinogen: DIBENZO[A,L]PYRENE-11,12-DIHYDRODIOL, 88191-01-9, Doses [Carcinogen]: 1 NMOL IN 100 µL ACETONE, Doses [Promoter]: 2.16 NMOL IN 100 µL ACETONE 2/WK FOR 27 WK BEGINNING 1 WK POST CARCINOGEN DOSE (STUDY DURATION: 28 WK), Route [Carcinogen]: DERMAL, Strain/Sex: SENCAR/FEMALE) was “skin: tumor” and the outcome (Carcinogen: DIBENZO[A,L]PYRENE-11,12-DIHYDRODIOL, 88191-01-9, Doses [Carcinogen]: 4, 20, 100 NMOL IN 100 µL ACETONE ONCE, Doses [Carcinogen]: 4, 20, 100 NMOL IN 100 µL ACETONE ONCE, Doses [Promoter]: 3.24 NMOL/100 µL ACETONE 2/WK BEGINNING 2 WK POST CARCINOGEN DOSE AND CONTINUING FOR 24 WK (STUDY DURATION: 27 WK), Route [Carcinogen]: DERMAL, Strain/Sex: SENCAR/FEMALE) was “skin: tumor”. For the same compound, the outcome (Carcinogen: DIBENZO[A,L]PYRENE-11,12-DIHYDRODIOL, 155254-86-7, Doses [Carcinogen]: 1.33, 4, 12 NMOL IN 100 ML ACETONE ONCE, Doses [Carcinogen]: 1.33, 4, 12 NMOL IN 100 ML ACETONE ONCE, Doses [Promoter]: 1.62 NMOL IN 100 ML ACETONE 2/WK FOR 28 WK BEGINNING 1 WK POST CARCINOGEN DOSE (STUDY DURATION: 30 WK), Route [Carcinogen]: DERMAL, Strain/Sex: SENCAR/FEMALE) was “skin: tumor”.
